# Columns and labels:
# [1] = target: SseK1 (Salmonella enterica, UniProt A0A0H3NK84); test: biochemical
# [2] = target: NleB (Citrobacter rodentium, UniProt A0A482PDI9); test: biochemical
# NleB, sequence (A0A482PDI9 whole entry, looked up): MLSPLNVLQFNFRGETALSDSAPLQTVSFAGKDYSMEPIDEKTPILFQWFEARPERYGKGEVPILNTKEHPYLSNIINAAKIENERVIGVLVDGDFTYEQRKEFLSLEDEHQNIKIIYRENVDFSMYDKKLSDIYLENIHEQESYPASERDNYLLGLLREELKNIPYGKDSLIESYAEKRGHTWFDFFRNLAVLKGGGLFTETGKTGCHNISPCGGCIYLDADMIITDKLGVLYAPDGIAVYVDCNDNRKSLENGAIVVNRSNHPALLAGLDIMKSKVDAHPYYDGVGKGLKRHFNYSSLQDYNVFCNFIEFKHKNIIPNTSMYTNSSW
# SseK1, sequence (A0A0H3NK84 whole entry, looked up): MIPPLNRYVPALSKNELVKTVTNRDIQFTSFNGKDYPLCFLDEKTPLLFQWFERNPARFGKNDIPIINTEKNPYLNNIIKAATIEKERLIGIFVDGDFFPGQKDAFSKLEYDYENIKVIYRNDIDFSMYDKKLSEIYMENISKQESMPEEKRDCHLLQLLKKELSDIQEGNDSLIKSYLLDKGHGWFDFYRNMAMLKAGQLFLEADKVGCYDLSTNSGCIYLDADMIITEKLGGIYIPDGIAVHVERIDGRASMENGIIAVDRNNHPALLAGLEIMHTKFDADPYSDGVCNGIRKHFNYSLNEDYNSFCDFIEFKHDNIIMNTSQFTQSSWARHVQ
compound,measurement,setting,value
CC(C)c1cc(C(C)C)c(CC(=O)NS(=O)(=O)Oc2c(C(C)C)cccc2C(C)C)c(C(C)C)c1 [avasimibe],IC50,[1],~10 µM
same,IC50,[2],~10 µM

# — paper PMC8953086, “Repurposing Avasimibe to Inhibit Bacterial Glycosyltransferases” (Pathogens, 2022)
